Measurements published in US20200267980A1, “Herbicidally Active Pyridyl-/Pyrimidyl-Pyrimidine Derivatives” (Syngenta Participations AG, priority 2017, published 2020).

Assays:
Format in all cases: in vivo
[1] = tested on: Avena fatua (AVEFA); assay: Pre-emergence herbicidal activity, glasshouse pot test; design: key: 5=total damage to plant; 0=no damage to plant; conditions: 1000 g/ha, pre-emergence spray, evaluated after 13 days, damage score 0-5
Method: (§1) Seeds of a variety of test species were sown in standard soil in pots: Triticum aestivium (TRZAW), Avena fatua (AVEFA), Alopecurus myosuroides (ALOMY), Echinochloa crus-galli (ECHCG), Lolium perenne (LOLPE), and Setaria faberi (SETFA). After cultivation for one day (pre-emergence) under controlled conditions in a glasshouse (at 24/16° C., day/night; 14 hours light; 65% humidity), the plants were sprayed with an aqueous spray solution derived from the formulation of the technical active ingredient in acetone/water (50:50) solution containing 0.5% Tween 20 (polyoxyethelyene sorbitan monolaurate, CAS RN 9005-64-5). The test plants were then grown in a glasshouse under controlled conditions (at 24/16° C., day/night; 14 hours light; 65% humidity) and watered twice daily. After 13 days, the test was evaluated (5=total damage to plant; 0=no damage to plant).

[2] = tested on: Setaria faberi (SETFA); assay: as above; design: key: 5=total damage to plant; 0=no damage to plant; conditions: 1000 g/ha, pre-emergence spray, evaluated after 13 days, damage score 0-5
Method: as §1

[3] = tested on: Triticum aestivium (TRZAW); assay: as above; design: key: 5=total damage to plant; 0=no damage to plant; conditions: 1000 g/ha, pre-emergence spray, evaluated after 13 days, damage score 0-5
Method: as §1

[4] = tested on: Alopecurus myosuroides (ALOMY); assay: as above; design: key: 5=total damage to plant; 0=no damage to plant; conditions: 1000 g/ha, pre-emergence spray, evaluated after 13 days, damage score 0-5
Method: as §1

[5] = tested on: Lolium perenne (LOLPE); assay: as above; design: key: 5=total damage to plant; 0=no damage to plant; conditions: 1000 g/ha, pre-emergence spray, evaluated after 13 days, damage score 0-5
Method: as §1

[6] = tested on: Echinochloa crus-galli (ECHCG); assay: as above; design: key: 5=total damage to plant; 0=no damage to plant; conditions: 1000 g/ha, pre-emergence spray, evaluated after 13 days, damage score 0-5
Method: as §1

[7] = tested on: Avena fatua (AVEFA); assay: Post-emergence herbicidal activity, glasshouse pot test; conditions: 1000 g/ha, post-emergence spray after 8 days cultivation, evaluated after 13 days, damage score 0-5
Method: (§2) Seeds of a variety of test species were sown in standard soil in pots: Triticum aestivium (TRZAW), Avena fatua (AVEFA), Alopecurus myosuroides (ALOMY), Echinochloa crus-galli (ECHCG), Lolium perenne (LOLPE), and Setaria faberi (SETFA). After 8 days cultivation (post-emergence) under controlled conditions in a glasshouse (at 24/16° C., day/night; 14 hours light; 65% humidity), the plants were sprayed with an aqueous spray solution derived from the formulation of the technical active ingredient in acetone/water (50:50) solution containing 0.5% Tween 20 (polyoxyethelyene sorbitan monolaurate, CAS RN 9005-64-5). The test plants were then grown in a glasshouse under controlled conditions (at 24/16° C., day/night; 14 hours light; 65% humidity) and watered twice daily. After 13 days, the test was evaluated (5=total damage to plant; 0=no damage to plant).

[8] = tested on: Setaria faberi (SETFA); assay: as above; design: key: 5=total damage to plant; 0=no damage to plant; conditions: 1000 g/ha, post-emergence spray after 8 days cultivation, evaluated after 13 days, damage score 0-5
Method: as §2

[9] = tested on: Triticum aestivium (TRZAW); assay: as above; design: key: 5=total damage to plant; 0=no damage to plant; conditions: 1000 g/ha, post-emergence spray after 8 days cultivation, evaluated after 13 days, damage score 0-5
Method: as §2

[10] = tested on: Alopecurus myosuroides (ALOMY); assay: as above; design: key: 5=total damage to plant; 0=no damage to plant; conditions: 1000 g/ha, post-emergence spray after 8 days cultivation, evaluated after 13 days, damage score 0-5
Method: as §2

[11] = tested on: Lolium perenne (LOLPE); assay: as above; design: key: 5=total damage to plant; 0=no damage to plant; conditions: 1000 g/ha, post-emergence spray after 8 days cultivation, evaluated after 13 days, damage score 0-5
Method: as §2

[12] = tested on: Echinochloa crus-galli (ECHCG); assay: as above; design: key: 5=total damage to plant; 0=no damage to plant; conditions: 1000 g/ha, post-emergence spray after 8 days cultivation, evaluated after 13 days, damage score 0-5
Method: as §2

| SMILES | Control of weed species after pre-emergence application, AVEFA [1] | Control of weed species after pre-emergence application, SETFA [2] | Control of weed species after pre-emergence application, TRAZW [3] | Control of weed species after pre-emergence application, ALOMY [4] | Control of weed species after pre-emergence application, LOLPE [5] | Control of weed species after pre-emergence application, ECHCG [6] | Control of weed species after post-emergence application, AVEFA [7] | Control of weed species after post-emergence application, SETFA [8] | Control of weed species after post-emergence application, TRAZW [9] | Control of weed species after post-emergence application, ALOMY [10] | Control of weed species after post-emergence application, LOLPE [11] | Control of weed species after post-emergence application, ECHCG [12] |
| --- | --- | --- | --- | --- | --- | --- | --- | --- | --- | --- | --- | --- |
| O=C(Nc1cnc(-c2cncc(F)c2)nc1C(F)(F)F)C1CCCCC1 [Compound F27] | 0 | 0 | 0 | 0 | 0 | 0 | 1 | 2 | 0 | 0 | 0 | 3 |
| CCC(=O)N(C(=O)CC)c1cnc(-c2cncc(F)c2)nc1C(F)(F)F [Compound F7] | 1 | 2 | 0 | 0 | 1 | 2 | 2 | 4 | 1 | 1 | 2 | 5 |
| O=C(Nc1cnc(-c2cncc(F)c2)nc1C(F)(F)F)C1CC1 [Compound F14, N-[2-(5-fluoro-3-pyridyl)-4-(trifluoromethyl)-pyrimidin-5-yl]cyclopropanecarboxamide] | 2 |  | 0 | 0 | 2 | 4 | 3 | 5 | 1 | 0 | 4 | 5 |
| CC(=O)Nc1cnc(-c2cncc(F)c2)nc1C(F)(F)F [Compound F11] | 2 |  | 0 | 0 | 1 | 4 | 3 | 5 | 1 | 1 | 2 | 4 |
| O=C(Nc1cnc(-c2cncc(F)c2)nc1C(F)(F)F)C(Cl)(Cl)Cl [Compound F5] | 1 | 5 | 0 | 0 | 0 | 3 | 2 | 5 | 1 | 2 | 3 | 4 |
| CC(C)C(=O)Nc1cnc(-c2cncnc2)nc1C(F)(F)F [Compound F32] | 1 | 4 | 1 | 1 | 1 | 4 | 3 | 4 | 1 | 1 | 2 | 4 |
| Cc1nc(-c2cncnc2)ncc1NC(=O)C(C)C [Compound F1, 2-methyl-N-(4-methyl-2-pyrimidin-5-yl-pyrimidin-5-yl)propanamide] | 2 | 5 | 0 | 0 | 0 | 3 | 3 |  | 0 | 0 | 1 | 4 |
| Cc1nc(-c2cncnc2)ncc1N(C(=O)C(C)C)C(=O)C(C)C [Compound F2, 2-methyl-N-(2-methylpropanoyl)-N-(4-methyl-2-pyrimidin-5-yl-pyrimidin-5-yl)propanamide] | 2 | 5 | 0 | 0 | 0 | 4 | 3 |  | 0 | 0 | 1 | 5 |
| CC(C)C(=O)Nc1cnc(-c2cncc(F)c2)nc1C(F)(F)F [Compound F13] | 2 |  | 0 | 0 | 1 | 4 | 3 | 5 | 0 | 0 | 2 | 5 |
| COCCC(=O)Nc1cnc(-c2cncc(F)c2)nc1C(F)(F)F [Compound F15] | 2 |  | 0 | 0 | 0 | 4 | 3 | 5 | 1 | 0 | 2 | 4 |
| CCCCC(=O)Nc1cnc(-c2cncc(F)c2)nc1C(F)(F)F [Compound F12] | 2 |  | 0 | 0 | 1 | 3 | 3 | 5 | 0 | 0 | 2 | 4 |
